Source: US20240197709A1, “POTENTIATING THE TUMOR-SELECTIVE EFFECTS OF NQO1-BIOACTIVATABLE AGENT BY USE OF CMET INHIBITOR” (The Trustees of Indiana University, priority 2022, published 2024)

Key:
[1] = system: MIAPaCa2 NQO1−/− PDAC cell line; test: long-term survival, MIAPaCa2 NQO1 knock out; format: cell-based; settings: β-lap alone
Text: Graph showing relative long-term survival plot of isogenic MIAPaCa2 NQO1+/+ versus MIAPaCa2 NQO1−/−PDAC cell lines treated with varying concentrations of β-lap alone.

[2] = system: pY1234-cMET (activated cMET) in the nucleus, A549; test: Western blots of nuclear versus cytoplasmic fractions; settings: A549, β-lap 3 μM and 6 μM for 2 h
Method: Images of Western blots of nuclear versus cytoplasmic fractions from A549 cells treated with vehicle (DMSO, 0.1%) control and indicated concentrations of β-lap±DIC (50 μM) for 2 h. Lamin B1 and tubulin were used as loading controls for nuclear and cytoplasmic fractions, respectively.
Bar graph depicting quantification of pY1234-cMET (activated cMET) in the nucleus at indicated treatment conditions.

A549 shSCR 3D spheroids = test: 3D spheroid growth and viability, A549 shSCR; format: cell-based; settings: β-lap 3 μM
Method: FIG. 5A. Representative brightfield images of A549 shSCR versus shMET 3D spheroids treated with vehicle control (0.1% DMSO) or β-lap (3 μM, which is sub-lethal in A549 NSCLC cells in 2D long-term survival assays) imaged at indicated times to monitor microtumor spheroid growth. Scale bar=250 μm.
FIG. 5B. Graphical comparison of 3D spheroid (microtumor) growth of A549 shSCR vs shMET at indicated treatments over time relative to initial 3D spheroid area (day 1).
FIG. 5C. Quantification of 3D spheroid viability at day 10 (in panel A) using CellTiter-Glo® 3D Cell Viability Assay.
Studies have shown that drug sensitivity of cancer cells cultured in three-dimension (3D) more accurately predicts their sensitivity in vivo.30-31 Thus, we utilized 3D tumor spheroid growth of our isogenic A549 shSCR or shMET cancer cell lines to closely recapitulate the cell-cell interactions of human tumors32-33. After three days of spheroid formation, A549 shSCR and shMET microtumors were exposed to vehicle control (0.1% DMSO) or β-lap (3 μM, sub-lethal concentration in 2D culture for A549 parental line), and imaged over time for 3D spheroid tumor growth for comparison. […] Additionally, the viability of A549 shSCR versus shMET 3D spheroids treated with vehicle control and β-lap at day 10 was determined using CellTiter-Glo® 3D Viability Assay (FIG. 5C) for comparison. […]

CC1(C)CCC2=C(O1)c1ccccc1C(=O)C2=O [β-lap, β-Lapachone]
sensitivity after knocking out NQO1 [1]: more resistant | translocation of activated cMET (pY1234-cMET) into the nucleus [2]: greatly enhanced | 3D spheroid (microtumor) growth over time (A549 shSCR 3D spheroids): relatively negligible microtumor lethality | 3D spheroid viability at day 10 (CellTiter-Glo 3D) (A549 shSCR 3D spheroids): no significant lethality
